# Experimental data published in patent US12433865B2, “Compositions comprising PGI2-receptor agonists and processes for the preparation thereof” (Arena Pharmaceuticals, Inc., priority 2018, dated 2025).
# Assay: Release (dissolution) profile of capsules, USP Apparatus 2 (paddle)
# Format: physicochemical
# Settings: 0.04 mg capsule; for Release rate (percentage of Compound 1 released over time): Poloxamer 188:food grade GMS 50:50
# From the text: USP Apparatus 2 (Paddle Apparatus) is described, for example, in the United States Pharmacopeial Convention, Feb. 1, 2012, Chapter <711> (“Dissolution”), incorporated by reference herein in its entirety. See http://www.usp.org/sites/default/files/usp_pdf/EN/USPNF/revisions/m99470-gc_711.pdf. The assembly from Apparatus 1 is used, except that a paddle formed from a blade and a shaft is used as the stirring element. The shaft is positioned so that its axis is not more than 2 mm from the vertical axis of the vessel at any point and rotates smoothly without significant wobble that could affect the results. The vertical center line of the blade passes through the axis of the shaft so that the bottom of the blade is flush with the bottom of the shaft. A distance of 25±2 mm between the bottom of the blade and the inside bottom of the vessel is maintained during the test. The metallic or suitably inert, rigid blade and shaft comprise a single entity. A suitable two-part detachable design may be used provided the assembly remains firmly engaged during the test. The paddle blade and shaft may be coated with a suitable coating so as to make them inert. The dosage unit is allowed to sink to the bottom of the vessel before rotation of the blade is started. A small, loose piece of nonreactive material, such as not more than a few turns of wire helix, may be attached to dosage units that would otherwise float. Other validated sinker devices may be used.
# Unless otherwise specified, the release profiles for capsules were measured using USP Apparatus 2 (paddle).
# All release profiles disclosed in Tables 3c-3p were measured with USP Apparatus 2 (paddle) at 50 rpm in 500 mL of aqueous sodium phosphate at a concentration of 0.05 M (pH=6.8). The values in a given table relate to capsules obtained from the same batch. Values shown represent mean values over a number of dissolution tests (“n” in each table) in each case.
structure (smiles),measurement,setting,value
"O=C(O)COC[C@H]1CC[C@H](COC(=O)N(c2ccccc2)c2ccc(Cl)cc2)CC1 [Compound 1, 2-(((1r,4r)-4-(((4-chlorophenyl)(phenyl)carbamoyloxy)methyl)cyclohexyl)methoxy)acetic acid]",release profile post-curing,"Poloxamer 188:food grade GMS 50:50, cured 18 hours, one week, two weeks and four weeks post-curing (FIG. 6)",remained substantially the same
same,Release rate (percentage of Compound 1 released over time),"1 wk (40° C.) storage, 30 min",11.1%
same,Release rate (percentage of Compound 1 released over time),"1 wk (40° C.) storage, 60 min",22.6%
same,Release rate (percentage of Compound 1 released over time),"1 wk (40° C.) storage, 120 min",40.1%
same,Release rate (percentage of Compound 1 released over time),"1 wk (40° C.) storage, 180 min",59.2%
same,Release rate (percentage of Compound 1 released over time),"1 wk (40° C.) storage, 240 min",71.8%
same,Release rate (percentage of Compound 1 released over time),"1 wk (40° C.) storage, 360 min",88.4%
same,Release rate (percentage of Compound 1 released over time),"1 wk (40° C.) storage, 480 min",92.2%
same,Release rate (percentage of Compound 1 released over time),"1 wk (40° C.) storage, 600 min",96.2%
same,Release rate (percentage of Compound 1 released over time),"1 wk (40° C.) storage, 720 min",95.3%
same,Release rate (percentage of Compound 1 released over time),"1 wk (40° C.) storage, 735 min",96.1%
same,Release rate (percentage of Compound 1 released over time),"2 wks (40° C.) storage, 30 min",10.8%
same,Release rate (percentage of Compound 1 released over time),"2 wks (40° C.) storage, 60 min",18.3%
same,Release rate (percentage of Compound 1 released over time),"2 wks (40° C.) storage, 120 min",36.8%
same,Release rate (percentage of Compound 1 released over time),"2 wks (40° C.) storage, 180 min",52.9%
same,Release rate (percentage of Compound 1 released over time),"2 wks (40° C.) storage, 240 min",67.4%
same,Release rate (percentage of Compound 1 released over time),"2 wks (40° C.) storage, 360 min",83.3%
same,Release rate (percentage of Compound 1 released over time),"2 wks (40° C.) storage, 480 min",90.3%
same,Release rate (percentage of Compound 1 released over time),"2 wks (40° C.) storage, 600 min",93.8%
same,Release rate (percentage of Compound 1 released over time),"2 wks (40° C.) storage, 720 min",93.7%
same,Release rate (percentage of Compound 1 released over time),"2 wks (40° C.) storage, 735 min",94.3%
same,Release rate (percentage of Compound 1 released over time),"4 wks (40° C.) storage, 30 min",7.3%
same,Release rate (percentage of Compound 1 released over time),"4 wks (40° C.) storage, 60 min",17.7%
same,Release rate (percentage of Compound 1 released over time),"4 wks (40° C.) storage, 120 min",37.4%
same,Release rate (percentage of Compound 1 released over time),"4 wks (40° C.) storage, 180 min",54.6%
same,Release rate (percentage of Compound 1 released over time),"4 wks (40° C.) storage, 240 min",70.3%
same,Release rate (percentage of Compound 1 released over time),"4 wks (40° C.) storage, 360 min",87.5%
same,Release rate (percentage of Compound 1 released over time),"4 wks (40° C.) storage, 480 min","90,9%"
same,Release rate (percentage of Compound 1 released over time),"4 wks (40° C.) storage, 600 min",93.2%
same,Release rate (percentage of Compound 1 released over time),"4 wks (40° C.) storage, 720 min",95.0%
same,Release rate (percentage of Compound 1 released over time),"4 wks (40° C.) storage, 735 min",94.3%
same,Release rate (percentage of Compound 1 released over time),"18 hrs (50° C.) curing, 30 min",14.3%
same,Release rate (percentage of Compound 1 released over time),"18 hrs (50° C.) curing, 60 min",21.8%
same,Release rate (percentage of Compound 1 released over time),"18 hrs (50° C.) curing, 120 min",39.9%
same,Release rate (percentage of Compound 1 released over time),"18 hrs (50° C.) curing, 180 min",56.3%
same,Release rate (percentage of Compound 1 released over time),"18 hrs (50° C.) curing, 240 min",72.6%
same,Release rate (percentage of Compound 1 released over time),"18 hrs (50° C.) curing, 360 min",89.2%
same,Release rate (percentage of Compound 1 released over time),"18 hrs (50° C.) curing, 480 min",93.5%
same,Release rate (percentage of Compound 1 released over time),"18 hrs (50° C.) curing, 600 min",95.7%
same,Release rate (percentage of Compound 1 released over time),"18 hrs (50° C.) curing, 720 min",96.9%
same,Release rate (percentage of Compound 1 released over time),"18 hrs (50° C.) curing, 735 min",95.6%
same,Release rate (percentage of Compound 1 released over time),"T = 0 (pre-curing), 30 min",11.0%
same,Release rate (percentage of Compound 1 released over time),"T = 0 (pre-curing), 60 min",18.3%
same,Release rate (percentage of Compound 1 released over time),"T = 0 (pre-curing), 120 min",30.1%
same,Release rate (percentage of Compound 1 released over time),"T = 0 (pre-curing), 180 min",39.6%
same,Release rate (percentage of Compound 1 released over time),"T = 0 (pre-curing), 240 min",48.8%
same,Release rate (percentage of Compound 1 released over time),"T = 0 (pre-curing), 360 min",64.1%
